Test: molar heat capacity at constant pressure; xn = mol fraction of the nth substance listed
Conditions: 101.3 kPa, Liquid, Small sample (50 mg) DSC

CCC(C)(C)O [2-methylbutan-2-ol] + CCCCCCC
Conditions	molar heat capacity at constant pressure [J/K/mol]
292.14 K, x1 = 0.9609	240.86
292.16 K, x1 = 0.0249	228.51
293.14 K, x1 = 0.0061	223.05
293.14 K, x1 = 0.0249	228.85
293.14 K, x1 = 0.0494	233.49
293.14 K, x1 = 0.1	238.13
293.14 K, x1 = 0.1547	240.82
293.14 K, x1 = 0.1999	242.32
293.14 K, x1 = 0.2993	244.48
293.14 K, x1 = 0.4051	245.2
293.14 K, x1 = 0.4986	245.35
293.14 K, x1 = 0.5981	245.12
293.14 K, x1 = 0.7015	244.38
293.14 K, x1 = 0.8023	243.13
293.14 K, x1 = 0.9139	242.22
293.14 K, x1 = 0.9609	241.95
294.15 K, x1 = 0.0061	223.39
294.15 K, x1 = 0.0249	229.18
294.15 K, x1 = 0.0494	233.86
294.15 K, x1 = 0.1	238.71
294.15 K, x1 = 0.1547	241.58
294.15 K, x1 = 0.1999	243.15
294.15 K, x1 = 0.2993	245.43
294.15 K, x1 = 0.4051	246.27
294.15 K, x1 = 0.4986	246.46
294.15 K, x1 = 0.5981	246.23
294.15 K, x1 = 0.7015	245.52
294.15 K, x1 = 0.8023	244.34
294.15 K, x1 = 0.9139	243.38
294.15 K, x1 = 0.9609	243.11
295.14 K, x1 = 0.0061	223.7
295.14 K, x1 = 0.0249	229.37
295.14 K, x1 = 0.0494	234.25
295.14 K, x1 = 0.1	239.22
295.14 K, x1 = 0.1547	242.31
295.14 K, x1 = 0.1999	243.96
295.14 K, x1 = 0.2993	246.32
295.14 K, x1 = 0.4051	247.28
295.14 K, x1 = 0.4986	247.54
295.14 K, x1 = 0.5981	247.38
295.14 K, x1 = 0.7015	246.7
295.14 K, x1 = 0.8023	245.54
295.14 K, x1 = 0.9139	244.5
295.14 K, x1 = 0.9609	244.22
296.14 K, x1 = 0.0061	223.96
296.14 K, x1 = 0.0249	229.63
296.14 K, x1 = 0.0494	234.59
296.14 K, x1 = 0.1	239.76
296.14 K, x1 = 0.1547	242.94
296.14 K, x1 = 0.1999	244.6
296.14 K, x1 = 0.2993	247.2
296.14 K, x1 = 0.4051	248.27
296.14 K, x1 = 0.4986	248.61
296.14 K, x1 = 0.5981	248.5
296.14 K, x1 = 0.7015	247.88
296.14 K, x1 = 0.8023	246.68
296.14 K, x1 = 0.9139	245.64
296.14 K, x1 = 0.9609	245.31
297.15 K, x1 = 0.0061	224.33
297.15 K, x1 = 0.0249	229.81
297.15 K, x1 = 0.0494	235.01
297.15 K, x1 = 0.1	240.36
297.15 K, x1 = 0.1547	243.63
297.15 K, x1 = 0.1999	245.46
297.15 K, x1 = 0.2993	248.18
297.15 K, x1 = 0.4051	249.33
297.15 K, x1 = 0.4986	249.76
297.15 K, x1 = 0.5981	249.72
297.15 K, x1 = 0.7015	249.04
297.15 K, x1 = 0.8023	247.89
297.15 K, x1 = 0.9139	246.86
297.15 K, x1 = 0.9609	246.4
298.14 K, x1 = 0.0061	224.65
298.14 K, x1 = 0.0249	230.08
298.14 K, x1 = 0.0494	235.35
298.14 K, x1 = 0.1	240.89
298.14 K, x1 = 0.1547	244.27
298.14 K, x1 = 0.1999	246.18
298.14 K, x1 = 0.2993	249.05
298.14 K, x1 = 0.4051	250.35
298.14 K, x1 = 0.4986	250.83
298.14 K, x1 = 0.5981	250.81
298.14 K, x1 = 0.7015	250.24
298.14 K, x1 = 0.8023	249.08
298.14 K, x1 = 0.9139	247.97
298.14 K, x1 = 0.9609	247.48
298.16 K, x1 = 0.0061	224.66
298.16 K, x1 = 0.0249	230.09
298.16 K, x1 = 0.0494	235.36
298.16 K, x1 = 0.1	240.91
298.16 K, x1 = 0.1547	244.3
298.16 K, x1 = 0.1999	246.2
298.16 K, x1 = 0.2993	249.07
298.16 K, x1 = 0.4051	250.39
298.16 K, x1 = 0.4986	250.87
298.16 K, x1 = 0.5981	250.84
298.16 K, x1 = 0.7015	250.29
298.16 K, x1 = 0.8023	249.11
298.16 K, x1 = 0.9139	248
298.16 K, x1 = 0.9609	247.52
299.14 K, x1 = 0.0061	224.99
299.14 K, x1 = 0.0249	230.35
299.14 K, x1 = 0.0494	235.67
299.14 K, x1 = 0.1	241.48
299.14 K, x1 = 0.1547	244.98
299.14 K, x1 = 0.1999	246.99
299.14 K, x1 = 0.2993	249.97
299.14 K, x1 = 0.4051	251.31
299.14 K, x1 = 0.4986	251.91
299.14 K, x1 = 0.5981	251.9
299.14 K, x1 = 0.7015	251.35
299.14 K, x1 = 0.8023	250.25
299.14 K, x1 = 0.9139	249.1
299.14 K, x1 = 0.9609	248.6
300.15 K, x1 = 0.0061	225.26
300.15 K, x1 = 0.0249	230.51
300.15 K, x1 = 0.0494	236
300.15 K, x1 = 0.1	241.9
300.15 K, x1 = 0.1547	245.57
300.15 K, x1 = 0.1999	247.7
300.15 K, x1 = 0.2993	250.81
300.15 K, x1 = 0.4051	252.27
300.15 K, x1 = 0.4986	252.92
300.15 K, x1 = 0.5981	253

— the NIST ThermoML archive (doi:10.1016/j.jct.2008.10.010)
